{"source": "patent US11135186B2", "about": "“Regulators of the endoplasmic reticulum proteostasis network” (The Scripps Research Institute, priority 2015, dated 2021)", "key": {"[1]": {"test_system": "XBP1-RLuc reporter (IRE1/XBP1s arm of the UPR)", "assay": "XBP1-RLuc splicing reporter, 1536-well screen in HEK293T-Rex cells", "type": "cell-based", "details": "% Tg (500 nM) activation, triplicate confirmation screen at 6.8 μM, 18 h", "excerpt": "To evaluate the selectivity of our screening hits for ATF6, we employed an alternative luciferase reporter to measure activation of the IRE1/XBP1s arm of the UPR. This reporter contains Renilla luciferase (RLuc) expressed out of frame downstream of the XBP1 splice site, preventing RLuc translation in the absence of stress (FIG. 2b)^36,37. In response to IRE1 activation, the 26-nt XBP1 intron is removed, producing a frame shift that allows for RLuc translation and activity. Robust dose-dependent activation of the XBP1-RLuc reporter upon addition of the ER stressors Tg and Tm was confirmed in HEK293T-Rex cells stably expressing the XBP1-RLuc reporter, producing a Z′ score of 0.75 for Tg.\n(§1) HEK293T-Rex cells incorporating either the ERSE-FLuc or XBP1s-RLuc reporters were collected by trypsinization and resuspended at a density of 500,000 cells per mL. The assay was started by dispensing 5 μL of cell suspension into each well of white, solid-bottom 1536-well plates using a flying reagent dispenser (FRD) and placed into an online incubator 3 h. Cells were then treated with 34 nL/well of either test compounds to give final concentrations of 6.8 μM, DMSO (Low control, final concentration 0.68%, 0% activation) or […] of Delta-7 thapsigargin (High control, final concentration 500 nM, 100% activation). Plates were incubated for 18 h at 37° C., removed from the incubator and equilibrated to room temperature for 10 min. Luciferase activity was detected by addition of 5 μL of ONE-Glo reagent (Promega) to each well. After a 10 min incubation time, light emission was measured with the ViewLux reader (PerkinElmer). The percent activation of each test compound was calculated as follows: % Activation=100*(Test Compound−Median Low Control)/(Median High Control ˜Median Low Control)."}, "[2]": {"test_system": "^FTTTR^A25T", "assay": "[35S] metabolic labeling, secretion of flag-tagged TTR^A25T from HepG2^ATF6 cells", "type": "cell-based", "details": "15 h pretreatment, 4 h chase; for degradation of ^FTTTR^A25T / reduction of ^FTTTR^A25T secretion: 10 μM", "description": "(§2) HepG2 cells or HEK293T cells plated on poly-D-lysine coated plates were metabolically labeled in DMEM-Cys/-Met (CellGro) supplemented with glutamine, penicillin/streptomycin, dialyzed fetal bovine serum, and EasyTag EXPRESS^35S Protein Labeling Mix (Perkin Elmer) for 30 min. Cells were washed twice with complete media and incubated in prewarmed DMEM for the indicated times. Media or lysates were harvested at the indicated times. Lysates were prepared in RIPA buffer with fresh protease inhibitor cocktail (Roche). FLAG tagged TTR variants or ALLC were immunopurified using M1 anti-FLAG agarose beads (Sigma-Aldrich) and washed three times with RIPA buffer. The immunoisolates were then eluted by boiling in Laemmli buffer and separated on SDS-PAGE. For total secreted media, 15 uL aliquots from media incubated for 4 hrs on pulsed cells were run on a SDS-PAGE. The gels were then dried, exposed to phosphorimager plates (GE Healthcare), and imaged with a Typhoon imager. Band intensities were quantified by densitometry in ImageQuant. Fraction secreted was calculated using the equation: fraction secreted=[extracellular [^35S]-LC signal at t=t/(extracellular [^35S]-LC signal at t=0+intracellular [^35S]-LC signal at t=0)]. Fraction remaining was calculated using the equation: [(extracellular [^35S]-LC signal at t=t+intracellular [^35S]-LC signal at t=t)/(extracellular [^35S]-LC signal at t=0+ intracellular [^35S]-LC signal at t=0)]."}, "[3]": {"test_system": "BiP expression in ALMC-2 cells", "assay": "BiP qPCR in ALMC-2 cells", "type": "cell-based, human", "details": "10 μM, 6 h", "description": "(§3) Cells were treated as described at 37° C., washed with Dulbecco's phosphate-buffered saline (Gibco), and then RNA was extracted using the RNeasy Mini Kit (Qiagen). qPCR reactions were performed on cDNA prepared from 500 ng of total cellular RNA using the QuantiTect Reverse Transcription Kit (Qiagen). The FastStart Universal SYBR Green Master Mix (Roche), cDNA, and appropriate human primers^4 or mouse primers (BiP; […] (SEQ ID NO: 5) and […] (SEQ ID NO: 6) purchased from Integrated DNA Technologies were used for amplifications (45 cycles of 1 min at 95° C., 10 s at 95° C., 30 sec at 60° C.) in an ABI 7900HT Fast Real Time PCR machine. Primer integrity was assessed by a thermal melt to confirm homogeneity and the absence of primer dimers. Transcripts were normalized to the housekeeping gene Rplp2 and all measurements were performed in triplicate. Data were analyzed using the RQ Manager and DataAssist 2.0 softwares (ABI)."}, "[4]": {"test_system": "endogenous secretory proteome of HepG2^ATF6 cells", "assay": "[35S] metabolic labeling, total secreted protein from HepG2^ATF6 cells", "type": "cell-based", "details": "15 h pretreatment, 10 μM compound or 1 μM Tg, 4 h chase", "description": "as §2"}, "[5]": {"test_system": "^FTTTR^WT", "assay": "[35S] metabolic labeling, secretion of flag-tagged TTR^WT from HepG2^ATF6 cells", "type": "cell-based", "details": "15 h pretreatment, 10 μM compound or 1 μM Tg, 4 h chase", "description": "as §2"}, "[6]": {"test_system": "HepG2 cells", "assay": "HepG2 viability (CellTiter-Glo)", "type": "cell-based", "description": "HepG2 cells were plated at 5,000 cells/well in a translucent, flat-bottomed 96 well plate, and treated for 48 hr with vehicle, 10 μM Tg or 10 μM ER proteostasis regulator. ALMC-2 or KAS-6/1 cells were plated at 33,000 cells/well in 96-well plates then treated with proteostasis regulators for 16 h as described. Cell metabolic activity was measured using the CellTiter-Glo assay (Promega), which reports on intracellular ATP concentration. CellTiter-Glo reagent was added to cell culture media at a 1:1 ratio and incubated for 2 minutes on an orbital shaker to induce cell lysis. The plate was then incubated at room temperature for 10 minutes to stabilize the luminescent signal and read on a Tecan F200 Pro microplate reader."}, "[7]": {"test_system": "ERSE-FLuc reporter (ATF6 arm of the UPR)", "assay": "ERSE-FLuc reporter, 1536-well confirmation screen in HEK293T-Rex cells", "type": "cell-based", "details": "% Tg (500 nM) activation, triplicate confirmation screen at 6.8 μM, 18 h", "excerpt": "We employed a transcriptional reporter that quantifies activation of the ATF6 arm of the UPR in HEK293T-Rex cells. This reporter contains a fragment of the UPR-inducible BiP promoter, including three ER stress-responsive elements (ERSEs), driving expression of firefly luciferase (ERSE-FLuc; FIG. 1a)^34. We previously employed this reporter for a small-scale screen using the 1280 member compound Library of Pharmacologic Active Compounds (LoPAC) to find small molecules that activate the UPR^8. […] Optimization and miniaturization of this assay to 1536-well format was performed at the Scripps Research Institute Molecule Screening Center (SRIMSC).\nas §1"}, "[8]": {"test_system": "BiP expression in HepG2 cells", "assay": "BiP qPCR in HepG2 cells", "type": "cell-based", "description": "as §3"}, "[9]": {"test_system": "BiP expression", "assay": "BiP qPCR 24 h timecourse", "type": "cell-based", "description": "as §3"}}}
{"smiles": "O=[N+]([O-])c1ccc(N/N=C/c2ccccc2O)cc1", "note": "[Compound 263]", "values": [{"measurement": "% XBP1-RLuc activation", "setting": "[1]", "value": "2.4 ± 1.0", "unit": "%"}, {"measurement": "degradation of ^FTTTR^A25T", "setting": "[2]", "value": "increased degradation"}, {"measurement": "reduction of ^FTTTR^A25T secretion", "setting": "[2]", "value": 45, "unit": "%"}, {"measurement": "expression of the ATF6 target gene BiP in ALMC-2 cells", "setting": "[3]", "value": "does not significantly induce"}, {"measurement": "accumulation of [35S]-labeled protein in media (total secreted proteome)", "setting": "[4]", "value": "did not influence"}, {"measurement": "^FTTTR^WT secretion (in words)", "setting": "[5]", "value": "did not significantly influence"}, {"measurement": "HepG2 viability", "setting": "[6]; 10 μM", "value": "do not significantly influence"}, {"measurement": "HepG2 viability", "setting": "[6]; 100 μM", "value": "reduce"}, {"measurement": "% ERSE-FLuc activation", "setting": "[7]", "value": "20.7 ± 2.3", "unit": "%"}, {"measurement": "expression of the ATF6-target gene BiP in HepG2 cells", "setting": "[8]", "value": "induced"}, {"measurement": "time of maximal BiP induction", "setting": "[9]", "value": 6, "unit": "h"}]}
{"smiles": "Cc1ccc(O)c(N/C=C/C(=O)c2ccc(F)cc2)c1", "note": "[Compound 132]", "values": [{"measurement": "% XBP1-RLuc activation", "setting": "[1]", "value": "10.3 ± 7.9", "unit": "%"}, {"measurement": "^FTTTR^A25T secretion (in words)", "setting": "[2]; 10 μM compound or 1 μM Tg", "value": "did not significantly influence"}, {"measurement": "degradation of ^FTTTR^A25T", "setting": "[2]", "value": "did not significantly influence"}, {"measurement": "expression of the ATF6 target gene BiP in ALMC-2 cells", "setting": "[3]", "value": "induced"}, {"measurement": "accumulation of [35S]-labeled protein in media (total secreted proteome)", "setting": "[4]", "value": "did not influence"}, {"measurement": "^FTTTR^WT secretion (in words)", "setting": "[5]", "value": "did not significantly influence"}, {"measurement": "HepG2 viability", "setting": "[6]; 10 μM", "value": "do not significantly influence"}, {"measurement": "HepG2 viability", "setting": "[6]; 100 μM", "value": "reduce"}, {"measurement": "% ERSE-FLuc activation", "setting": "[7]", "value": "140.1 ± 17.4", "unit": "%"}, {"measurement": "expression of the ATF6-target gene BiP in HepG2 cells", "setting": "[8]", "value": "induced"}, {"measurement": "time of maximal BiP induction", "setting": "[9]", "value": 6, "unit": "h"}]}
{"smiles": "Cc1ccc(O)c(NC(=O)CCc2ccccc2)c1", "note": "[Compound 147]", "values": [{"measurement": "% XBP1-RLuc activation", "setting": "[1]", "value": "17.5 ± 1.9", "unit": "%"}, {"measurement": "degradation of ^FTTTR^A25T", "setting": "[2]", "value": "increased degradation"}, {"measurement": "reduction of ^FTTTR^A25T secretion", "setting": "[2]", "value": 45, "unit": "%"}, {"measurement": "expression of the ATF6 target gene BiP in ALMC-2 cells", "setting": "[3]", "value": "induced"}, {"measurement": "accumulation of [35S]-labeled protein in media (total secreted proteome)", "setting": "[4]", "value": "did not influence"}, {"measurement": "^FTTTR^WT secretion (in words)", "setting": "[5]", "value": "did not significantly influence"}, {"measurement": "HepG2 viability", "setting": "[6]; 10 μM", "value": "do not significantly influence"}, {"measurement": "HepG2 viability", "setting": "[6]; 100 μM", "value": "reduce"}, {"measurement": "% ERSE-FLuc activation", "setting": "[7]", "value": "63.2 ± 0.6", "unit": "%"}, {"measurement": "expression of the ATF6-target gene BiP in HepG2 cells", "setting": "[8]", "value": "induced"}, {"measurement": "time of maximal BiP induction", "setting": "[9]", "value": 6, "unit": "h"}]}
